How the values were obtained:
[1] = system: mutants of Ku70 complexed to WT Ku80; assay: ITC, mutant Ku70 (complexed to WT Ku80) with P-KBM; format: binding; settings: three Ku70 mutants complexed to WT Ku80 (fig. S7)
Description: DNA-PKcs and full-length His-tagged Ku70/80 were expressed and purified according to ([6]). For crystallography and ITC, the full-length Ku70/80 and a truncated version deleted of its C terminus regions called KuΔC [Ku70 (1 to 544)/Ku80 (1 to 555)], were expressed in Sf21 insect cells using a MultiBac expression system. The Ku80 subunit contains a 10xHis-tag, followed by a Tobacco Etch Virus (TEV) protease site on its N terminus. The Ku70/Ku80 heterodimer was purified according to the protocol described in ([10]). The three KuFL variants with single mutation H162A, R165E, or R517E on Ku70 subunits were expressed in insect cells and purified with the same protocol.
Interaction between Ku-DNA complex and the different peptides (WT and variants) was measured by isothermal calorimetry using a VP-ITC machine. For ITC measurements, the full-length Ku heterodimer was used with the DNA G and F as previously used in ([14]). Before measurements, the Ku heterodimer was extensively dialyzed against buffer [20 mM tris (pH 8), 150 mM NaCl, and 5 mM β-mercaptoethanol]. The cell reaction (1.8 ml) was loaded with the preformed Ku-DNA complex at a 1:1.2 molar ratio respectively. Ku was loaded at 5 μM concentration. The syringe (300 μl) was loaded with the different peptides at different concentrations ranging between 50 and 100 μM. The Ku-DNA complex was titrated by automatic injections of 10 μl at 25°C. […]

[2] = system: laser-induced DNA damage sites in U2OS cells; assay: Laser microirradiation, GFP-PAXX and mCherry-XLF coexpressed in U2OS cells with WT or mutated Ku70; format: cell-based, human; settings: U2OS cells expressing Ku70 mutants; Fig. 5, B to E
XLF = assay: Direct PAXX-XLF interaction test; format: binding; settings: tested outside the DNA-PK LR complex; method not described
[3] = system: laser-induced DNA damage sites in U2OS cells; assay: Laser microirradiation, GFP-PAXX recruitment in mAID-Ku70 U2OS cells with WT or mutated Ku70; format: cell-based, human; settings: mAID-Ku70 U2OS cells + IAA, Fig. 3B
Description: We also purified three mutants of Ku70 complexed to WT Ku80 (fig. S7). […] To assess the impact of Ku70 mutations in cells, we engineered a system in U2OS cells to allow replacement of endogenous Ku70 by mutant forms of the protein (Fig. 3A). As Ku is essential for the viability of human cells, we first knocked down endogenous Ku70 expression via the constitutive expression of a short hairpin–mediated RNA (shRNA) combined with cell rescue through expression of Ku70 tagged with a mini auxin-inducible degron (mAID). This allows for rapid degradation of endogenous Ku70 upon addition of auxin [indole-3-acetic acid (IAA)] ([28]). This system permits a strong and fast Ku70 depletion, with concomitant Ku80 depletion due to reciprocal stabilization of both Ku subunits (Fig. 3A).
The generation of U2OS cells expressing a mAID-Ku70 in place of the endogenous protein was achieved as follows. First, U2OS cells were cotransduced with two lentiviral constructs allowing both the expression of an shRNA against Ku70 and the expression of a Ku70 protein resistant to the shRNA and fused to a mAID tag at its N terminus. The latter vector also expresses a puromycin resistance gene, enabling the selection of a transduced cell population. […]

[4] = system: damaged chromatin fraction of U2OS cells expressing WT or mutated Ku70; assay: Western blot of chromatin fractions after calicheamicin; format: cell-based, human; settings: 3 nM calicheamicin for 1 hour, Fig. 3E

CC[C@H](C)[C@H](NC(=O)[C@H](CC(C)C)NC(=O)[C@H](CO)NC(=O)[C@H](CCC(=O)O)NC(=O)CNC(=O)[C@@H]1CCCN1C(=O)[C@H](CS)NC(=O)[C@H](CCCNC(=N)N)NC(=O)[C@H](CCCNC(=N)N)NC(=O)[C@H](CCCNC(=N)N)NC(C)=O)C(=O)N[C@@H](CC(N)=O)C(=O)N1CCC[C@H]1C(=O)NCC(=O)N[C@@H](Cc1ccccc1)C(=O)N[C@@H](CCCCN)C(=O)N[C@@H](CO)C(=O)N[C@@H](CCCCN)C(=O)N[C@@H](CCCCN)C(=O)N1CCC[C@H]1C(=O)N[C@@H](C)C(=O)NCC(=O)NCC(=O)N[C@H](C(=O)N[C@@H](CC(=O)O)C(=O)N[C@@H](Cc1ccccc1)C(=O)N[C@@H](CC(=O)O)C(=O)N[C@@H](CCC(=O)O)C(=O)N[C@H](C(=O)O)[C@@H](C)O)C(C)C [KBM]
residual interaction of Ku70 mutants with P-KBM (ITC, words) [1]: no residual interaction

GFP-PAXX: GFP-tagged PAXX construct expressed in U2OS cells
recruitment of coexpressed GFP-PAXX / mCherry-XLF to DNA damage sites with Ku70 mutations [2]: compromised to various extents

PAXX: full-length PAXX, paralog of XRCC4 and XLF, 6xHis-tag, expressed in E. coli; WT protein also expressed in cells
direct interaction of PAXX and XLF (XLF): did not observe a direct interaction when tested
PAXX recruitment to damage sites under Ku depletion ([3]; no complementation): abolished under Ku depletion conditions
recruitment to damaged chromatin fraction, Ku70 Patch 1 or Patch 2 mutated [4]: not detected in damaged chromatin fraction

WT Ku70: recombinant wild-type Ku70 used to replace degraded endogenous Ku70
PAXX recruitment to microirradiated areas, restored by recombinant Ku70 ([3]; complemented with WT Ku70): restored to levels similar to those in native U2OS cells

— PMC10413649 (Science Advances, 2023)
